Assay results reported in patent US20210369710A1, “MODULATORS OF MYC FAMILY PROTO-ONCOGENE PROTEIN” (Nalo Therapeutics, priority 2019, published 2021).

Key:
MycN Protein = biological target: T1, MycN Protein (Homo sapiens, UniProt P04198); assay: Degradation of MycN protein, Western blot band density in cells; type: cell-based; conditions: HL-60 or SKNBE2 cells; 6 uL of compound (1 mM) added to 3 mL cells; 6 hours; Western blot band density (ImageJ)
T1 construct: endogenous in cells; host or cells: HL-60 or SKNBE2
T1 sequence (P04198 1-464): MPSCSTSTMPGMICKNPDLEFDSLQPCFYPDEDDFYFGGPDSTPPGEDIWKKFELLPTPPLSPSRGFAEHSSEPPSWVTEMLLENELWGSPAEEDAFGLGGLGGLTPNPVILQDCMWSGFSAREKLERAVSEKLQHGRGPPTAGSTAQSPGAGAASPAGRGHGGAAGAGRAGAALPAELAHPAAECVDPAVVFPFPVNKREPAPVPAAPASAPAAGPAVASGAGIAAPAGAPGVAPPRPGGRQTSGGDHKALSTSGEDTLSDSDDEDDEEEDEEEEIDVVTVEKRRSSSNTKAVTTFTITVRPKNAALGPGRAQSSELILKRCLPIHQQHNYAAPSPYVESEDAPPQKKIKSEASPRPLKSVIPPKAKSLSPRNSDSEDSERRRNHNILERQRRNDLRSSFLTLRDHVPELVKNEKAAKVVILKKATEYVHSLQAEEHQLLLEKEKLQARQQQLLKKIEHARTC
In short: (§1)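 HL-60 leukemia or SKNBE2 neuroblastoma cells (3×10^6 per well, passages below 40) were exposed for 6 h to compound added from a 1 mM stock. RIPA lysates (25-30 ug protein) were run on SDS-PAGE and immunoblotted for c-Myc or MycN. Band density was quantified from the western images.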

MycC Protein = biological target: T2, MycC Protein (Homo sapiens, UniProt P01106); assay: Degradation of MycC protein, Western blot band density in cells; type: cell-based; conditions: HL-60 or SKNBE2 cells; 6 uL of compound (1 mM) added to 3 mL cells; 6 hours; Western blot band density (ImageJ)
T2 construct: endogenous in cells; host or cells: HL-60 or SKNBE2
T2 sequence (P01106 whole entry): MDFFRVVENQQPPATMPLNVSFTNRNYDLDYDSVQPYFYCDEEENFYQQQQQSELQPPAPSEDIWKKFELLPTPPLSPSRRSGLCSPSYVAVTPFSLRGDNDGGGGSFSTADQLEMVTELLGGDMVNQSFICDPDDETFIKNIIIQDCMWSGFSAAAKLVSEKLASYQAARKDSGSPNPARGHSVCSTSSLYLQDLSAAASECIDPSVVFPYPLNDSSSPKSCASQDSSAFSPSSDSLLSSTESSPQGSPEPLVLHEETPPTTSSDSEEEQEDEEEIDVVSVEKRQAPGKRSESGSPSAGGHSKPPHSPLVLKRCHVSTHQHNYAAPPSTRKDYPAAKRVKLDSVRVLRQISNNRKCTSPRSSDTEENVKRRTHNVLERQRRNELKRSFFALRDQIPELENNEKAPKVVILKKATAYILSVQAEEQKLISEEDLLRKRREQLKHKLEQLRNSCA
In short: as §1

Row | Dmax at 2 µM (MycN Protein) | Dmax at 2 µM (MycC Protein) | Structure (SMILES) | % Degradation of MycN (MycN Protein) | % Degradation of MycC (MycC Protein)
1 | 20 to 49% | < 20% | Cc1cc(Nc2ccnc(N[C@H]3CC[C@H](NC(=O)N[C@@H]4CCC[C@H](C(F)(F)F)C4)CC3)n2)n[nH]1 [Compound 104, 1-((1R,4R)-4-((4-((5-methyl-1H-pyrazol-3-yl)amino)pyrimidin-2-yl)amino)cyclohexyl)-3-((1R,3S)-3-(trifluoromethyl)cyclohexyl)urea] | – | –
2 | < 20% | < 20% | CO[C@H]1c2ccccc2C[C@H]1NC(=O)N[C@H]1CC[C@H](Nc2nccc(Nc3cc(C)[nH]n3)n2)CC1 [Compound 105, 1-((1S,2R)-1-methoxy-2,3-dihydro-1H-inden-2-yl)-3-((1R,4R)-4-((4-((5-methyl-1H-pyrazol-3-yl)amino)pyrimidin-2-yl)amino)cyclohexyl)urea] | – | –
3 | < 20% | 50 to 79% | CN1CC(NCc2ccc3c(c2)CC(NC(=O)N[C@H]2CC[C@H](Nc4nccc(Nc5cc(C6CCCC6)[nH]n5)n4)CC2)C3)C1 (stereo partly drawn) [Compound 107] | – | –
4 | < 20% | < 20% | C/N=C(\Nc1cccc(C(F)(F)F)c1)N[C@H]1CC[C@H](Nc2nccc(Nc3cc(C)[nH]n3)n2)CC1 [Compound 112] | – | –
5 | < 20% | < 20% | Cc1cc(Nc2ccnc(N[C@H]3CC[C@H](NC(=O)NC4Cc5ccc(S(C)(=O)=O)cc5C4)CC3)n2)n[nH]1 (stereo partly drawn) [Compound 115] | – | –
6 | < 20% | < 20% | O=C(N[C@@H]1CCC[C@@H](C(F)(F)F)C1)N[C@H]1CC[C@H](Nc2nccc(Nc3cc(C4CCCC4)[nH]n3)n2)CC1 [Compound 119] | – | –
7 | < 20% | < 20% | Cc1cc(Nc2ccnc(N[C@H]3CC[C@H](NC(=O)N[C@@H]4CCC[C@@H](C(F)(F)F)C4)CC3)n2)n[nH]1 [Compound 120] | – | –
8 | – | – | CN(c1nccc(Nc2cc(C3CCCC3)[nH]n2)n1)C1CCC(NC(=O)N[C@H]2CCC[C@@H](C(F)(F)F)C2)CC1 (stereo partly drawn) [Compound 121 (Fraction 1), 1-((1R,4S)-4-((4-((5-cyclopentyl-1H-pyrazol-3-yl)amino)pyrimidin-2-yl)(methyl)amino)cyclohexyl)-3-((1S,3R)-3-(trifluoromethyl)cyclohexyl)urea] | *** (***: degradation 50-79%) | *** (***: degradation 50-79%)
9 | – | – | CN(c1nccc(Nc2cc(C3CCCC3)[nH]n2)n1)C1CCC(NC(=O)N[C@H]2CCC[C@@H](C(F)(F)F)C2)CC1 (stereo partly drawn) [Compound 121 (Fraction 2), 1-((1R,4S)-4-((4-((5-cyclopentyl-1H-pyrazol-3-yl)amino)pyrimidin-2-yl)(methyl)amino)cyclohexyl)-3-((1S,3R)-3-(trifluoromethyl)cyclohexyl)urea] | *** (***: degradation 50-79%) | ** (**: degradation 20-49%)
10 | 80 to 100% | 80 to 100% | CN(c1nccc(Nc2cc(C3CC3)[nH]n2)n1)[C@H]1CC[C@H](NC(=O)NC2Cc3ccc(C#N)cc3C2)CC1 (stereo partly drawn) [Compound 142, 1-(5-cyano-2,3-dihydro-1H-inden-2-yl)-3-((1R,4R)-4-((4-((5-cyclopropyl-1H-pyrazol-3-yl)amino)pyrimidin-2-yl)(methyl)amino)cyclohexyl)urea] | – | –
11 | 50 to 79% | 50 to 79% | CN(C(=O)NC1Cc2ccc(C#N)cc2C1)[C@H]1CC[C@H](N(C)c2nccc(Nc3cc(C4CCCC4)[nH]n3)n2)CC1 (stereo partly drawn) [Compound 143, 3-(5-cyano-2,3-dihydro-1H-inden-2-yl)-1-((1R,4R)-4-((4-((5-cyclopentyl-1H-pyrazol-3-yl)amino)pyrimidin-2-yl)(methyl)amino)cyclohexyl)-1-methylurea] | – | –
12 | 50 to 79% | 80 to 100% | CN(c1nccc(Nc2cc(C3CCC3)[nH]n2)n1)[C@H]1CC[C@H](NC(=O)NC2Cc3ccc(C#N)cc3C2)CC1 (stereo partly drawn) [Compound 144, 1-(5-cyano-2,3-dihydro-1H-inden-2-yl)-3-((1R,4R)-4-((4-((5-cyclobutyl-1H-pyrazol-3-yl)amino)pyrimidin-2-yl)(methyl)amino)cyclohexyl)urea] | – | –
